Experiment [1] has as its target T1, glucagon receptor (GCGR) (Homo sapiens, UniProt P47871).
T1 construct: expressed in transfected cells; host or cells: CHO-K1 cells overexpressing GCGR (membrane fractions)
The experiment can be described thus: I125-glucagon binding assay (competition, GCGR membrane fractions). An outline of the steps:
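Membranes from CHO-K1 cells overexpressing GCGR, 7.5 μg/well in 50 mM Tris pH 7.4 with 0.5% BSA, were preincubated 5 min with serially diluted compounds, then given 0.0625 nM final I^125-glucagon for 30 min at 25° C. Bound label was filtered on PEI-coated GF/B and counted; IC50 by non-linear regression.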

Experiment [2] addresses T2, glucagon receptor (GCGR) overexpressed CHO-K1 cells or human primary hepatocytes (Homo sapiens, UniProt P47871).
T2 construct: expressed in transfected cells; host or cells: GCGR overexpressed CHO-K1 cells or human primary hepatocytes (endogenous receptor)
Put plainly: Glucagon cAMP inhibition assay (Cisbio cAMP Dynamic 2 HTRF). The experiment is classed as cell-based. The method in brief: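 GCGR-overexpressing CHO-K1 cells or human primary hepatocytes in HBSS with 0.1% BSA and 800 nM IBMX, pre-incubated 30 min with serially diluted compounds (1% DMSO final), then stimulated 30 min at room temperature with glucagon at its EC50. cAMP measured by HTRF after 60 min lysis; IC50 by non-linear regression.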
On the technique in general: Time-resolved FRET reads energy transfer from a long-lived donor to a nearby acceptor.

Where [3] appears, read: competition with I125-glucagon 0.0625 nM, membrane fractions of GCGR overexpressed CHO-K1 cells.
[4] abbreviates: inhibition of glucagon (EC50 concentration) induced cAMP production.

The source of these data is patent publication US11384060B2, “Amide compounds and use thereof” (ALPHALA CO., LTD., priority 2017, dated 2022).

Where two headings read alike, the source gives them in different places.

T2 sequence (P47871 26-477): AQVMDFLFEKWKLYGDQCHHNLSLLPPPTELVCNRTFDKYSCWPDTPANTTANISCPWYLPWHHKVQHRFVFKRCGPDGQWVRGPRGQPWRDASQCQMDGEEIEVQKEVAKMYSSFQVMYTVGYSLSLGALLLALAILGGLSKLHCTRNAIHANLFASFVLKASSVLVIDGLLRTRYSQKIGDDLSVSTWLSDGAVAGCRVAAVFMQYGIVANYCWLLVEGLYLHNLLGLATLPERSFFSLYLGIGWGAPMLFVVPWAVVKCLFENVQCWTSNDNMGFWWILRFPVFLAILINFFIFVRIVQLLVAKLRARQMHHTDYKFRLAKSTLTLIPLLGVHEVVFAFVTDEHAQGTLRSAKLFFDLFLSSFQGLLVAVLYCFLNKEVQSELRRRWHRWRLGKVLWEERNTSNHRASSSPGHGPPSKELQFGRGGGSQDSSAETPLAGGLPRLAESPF
T1 sequence (P47871 26-477): as above

The term IC50 denotes the concentration needed to halve the response being measured. As to `CCOC(=O)CCNC(=O)c1ccc(N[C@H](C(=O)Nc2ccc(-c3cc4ccccc4o3)cc2)C(C)C)cc1` [Compound 23-32, Ethyl (S)-3-(4-((1-((4-(benzofuran-2-yl)phenyl)amino)-3-methyl-1-oxobutan-2-yl)amino)benzamido)propanoate], the IC50 in experiment [1] was found to be 5180 nM. Also, the “IC50 cAMP” value in experiment [2] is 92.8 nM.

Regarding `CC[C@H](C)[C@@H](COc1ccc(-c2ccc(C(F)(F)F)cc2Cl)c(C)n1)Nc1ccc(C(=O)NCCC(=O)O)cc1` [Compound 18-3, 3-(4-(((2S,3S)-1-((5-(2-chloro-4-(trifluoromethyl)phenyl)-6-methylpyridin-2-yl)oxy)-3-methylpentan-2-yl)amino)benzamido)propanoic Acid], the 50% inhibitory concentration (IC50) in experiment [1] turned out to be 62 nM. Also, the “IC50 cAMP” value in experiment [2] stood at 75 nM.

The compound `Cc1cc(OC[C@@H](Nc2ccc(C(=O)NCCC(=O)O)cc2)C(C)C)cc(C)c1-c1ccc(C(F)(F)F)cc1Cl` [Compound 2-11, (S)-3-(4-((1-((2′-chloro-2,6-dimethyl-4′-(trifluoromethyl)-[1,1′-biphenyl]-4-yl)oxy)-3-methylbutan-2-yl)amino)benzamido)propanoic Acid] returned a 50% inhibitory concentration (IC50) in experiment [1] (setting [3]) of 872 nM. For the same compound, in experiment [2] (setting [4]), the “IC50 cAMP” value turned out to be 277.2 nM.

In turn, `CCCC[C@@H](COc1ccc(-c2ccc(C(F)(F)F)cc2Cl)cc1)Nc1ccc(C(=O)NCc2nnn[nH]2)cc1` [Compound 1-20, (S)—N-((1H-tetrazol-5-yl)methyl)-4-((1-((2′-chloro-4′-(trifluoromethyl)-[1,1′-biphenyl]-4-yl)oxy)hexan-2-yl)amino)benzamide] returned a half-inhibitory concentration (IC50) in experiment [1] (setting [3]) of 96 nM. For the same compound, the “IC50 cAMP” value in experiment [2] (setting [4]) is 524 nM.

In turn, `CC[C@H](C)[C@@H](COc1ccc(-c2ccc(C(F)(F)F)cc2)nn1)Nc1ccc(C(=O)NCCC(=O)O)cc1` [Compound 17-3, 3-(4-(((2S,3S)-3-methyl-1-((6-(4-(trifluoromethyl)phenyl)pyridazin-3-yl)oxy)pentan-2-yl)amino)benzamido)propanoic Acid] displayed an IC50 in experiment [1] (setting [3]) of 989 nM. Further, in experiment [2] (setting [4]), the “IC50 cAMP” value turned out to be 1307 nM.

`CCCC[C@@H](COc1ccc(-c2ccc(C(F)(F)F)cc2)cc1)Nc1ccc(C(=O)NCc2nnn[nH]2)cc1` [Compound 1-16, (S)—N-((1H-tetrazol-5-yl)methyl)-4-((1-((4′-(trifluoromethyl)-[1,1′-biphenyl]-4-yl)oxy)hexan-2-yl)amino)benzamide]: the half-maximal inhibitory concentration (IC50) in experiment [1] (setting [3]) was determined as 52 nM. Besides, in experiment [2] (setting [4]), the “IC50 cAMP” value is given as 948.8 nM.

On to `CCCC[C@@H](COc1ccc(-c2cc3ccccc3o2)c(Cl)c1)Nc1ccc(C(=O)NCCC(=O)O)cc1` [Compound 3-10, (S)-3-(4-((1-(4-(benzofuran-2-yl)-3-chlorophenoxy)hexan-2-yl)amino)benzamido)propanoic Acid], for which the half-inhibitory concentration (IC50) in experiment [1] (setting [3]) stood at 20 nM. Besides, in experiment [2] (setting [4]), the “IC50 cAMP” value was determined as 88.7 nM.

For `CC(C)C[C@@H](COc1ccc(-c2ccc(F)cc2F)nn1)Nc1ccc(C(=O)NCCC(=O)O)cc1` [Compound 17-1, (S)-3-(4-((1-((6-(2,4-difluorophenyl)pyridazin-3-yl)oxy)-4-methylpentan-2-yl)amino)benzamido)propanoic Acid], the concentration for half-maximal inhibition (IC50) in experiment [1] (setting [3]) was 2260 nM. The “IC50 cAMP” value in experiment [2] (setting [4]) is 4239 nM.

Compound `CC(C)[C@@H](COc1ccc(-c2ccc(C(F)(F)F)cc2F)nc1)Nc1ccc(C(=O)NCCC(=O)O)cc1` [Compound 10-3, (S)-3-(4-((1-((6-(2-fluoro-4-(trifluoromethyl)phenyl)pyridin-3-yl)oxy)-3-methylbutan-2-yl)amino)benzamido)propanoic Acid] showed an IC50 in experiment [1] (setting [3]) of 511 nM. In addition, the “IC50 cAMP” value in experiment [2] (setting [4]) amounted to 1206 nM.

As for `CC(C)[C@@H](COc1cc(F)c(-c2cc3ccccc3o2)c(F)c1)Nc1ccc(C(=O)NCCC(=O)O)cc1` [Compound 7-1, (S)-3-(4-((1-(4-(benzofuran-2-yl)-3,5-difluorophenoxy)-3-methylbutan-2-yl)amino)benzamido)propanoic Acid], the IC50 in experiment [1] (setting [3]) stood at 93 nM. For the same compound, in experiment [2] (setting [4]), the “IC50 cAMP” value was found to be 495 nM.

In experiment [1], `CCCOC[C@H](Cc1ccc(-c2cccc(C(F)(F)F)c2)cc1)Nc1ccc(C(=O)NCCC(=O)O)cc1` [Compound 19-23, (S)-3-(4-((1-propoxy-3-(3′-(trifluoromethyl)-[1,1′-biphenyl]-4-yl)propan-2-yl)amino)benzamido)propanoic Acid] registered a half-inhibitory concentration (IC50) of 1310 nM. Moreover, the “IC50 cAMP” value in experiment [2] was 1126 nM.

Compound `CCCC[C@@H](Cc1noc(-c2ccc(C(C)(C)C)cc2)n1)Nc1ccc(C(=O)NCCC(=O)O)cc1` [Compound 21-1, (S)-3-(4-((1-(5-(4-(tert-butyl)phenyl)-1,2,4-oxadiazol-3-yl)hexan-2-yl)amino)benzamido)propanoic Acid] gave an IC50 in experiment [1] (setting [3]) of 803 nM. Further, in experiment [2] (setting [4]), the “IC50 cAMP” value is recorded as 170.4 nM.

In turn, `CCCOC[C@H](Cc1ccc(-c2ccc(OC(F)(F)F)cc2)cc1)Nc1ccc(C(=O)NCCC(=O)O)cc1` [Compound 19-14, (S)-3-(4-((1-propoxy-3-(4′-(trifluoromethoxy)-[1,1′-biphenyl]-4-yl)propan-2-yl)amino)benzamido)propanoic Acid] gave an IC50 in experiment [1] of 444 nM. Besides, the “IC50 cAMP” value in experiment [2] is 787 nM.

As to `CC[C@H](C)[C@@H](COc1ccc(-c2ccc(C(F)(F)F)cc2Cl)nc1)Nc1ccc(C(=O)NCCC(=O)O)cc1` [Compound 10-16, 3-(4-(((2S,3S)-1-((6-(2-chloro-4-(trifluoromethyl)phenyl)pyridin-3-yl)oxy)-3-methylpentan-2-yl)amino)benzamido)propanoic Acid], the IC50 in experiment [1] (setting [3]) was 141 nM. Moreover, the “IC50 cAMP” value in experiment [2] (setting [4]) came to 272 nM.

With `CC(C)[C@@H](COc1ccc(-c2ccc(C(F)(F)F)cc2)cn1)Nc1ccc(C(=O)NCc2nnn[nH]2)cc1` [Compound 15-2, (S)—N-((1H-tetrazol-5-yl)methyl)-4-((3-methyl-1-((5-(4-(trifluoromethyl)phenyl)pyridin-2-yl)oxy)butan-2-yl)amino)benzamide], the IC50 in experiment [1] is 390 nM. Besides, the “IC50 cAMP” value in experiment [2] worked out at 1543 nM.

Compound `Cc1cc(OC[C@@H](Nc2ccc(C(=O)NCCC(=O)O)cc2)C(C)C)cc(C)c1-c1ccc(C(F)(F)F)cc1` [Compound 2-4, (S)-3-(4-((1-((2,6-dimethyl-4′-(trifluoromethyl)-[1,1′-biphenyl]-4-yl)oxy)-3-methylbutan-2-yl)amino)benzamido)propanoic Acid] had an IC50 in experiment [1] (setting [3]) of 91 nM. In addition, the “IC50 cAMP” value in experiment [2] (setting [4]) stood at 245.8 nM.

`CCOC(=O)CCNC(=O)c1ccc(N[C@H](COc2ccc(-c3nnc(C(C)(C)C)o3)cn2)c2ccc(-c3ccc(C(F)(F)F)cc3F)cc2)cc1` [Compound 15-31, Ethyl (S)-3-(4-((2-((5-(5-(tert-butyl)-1,3,4-oxadiazol-2-yl)pyridin-2-yl)oxy)-1-(2′-fluoro-4′-(trifluoromethyl)-[1,1′-biphenyl]-4-yl)ethyl)amino)benzamido)propanoate] displayed an IC50 in experiment [1] of more than 30000 nM. In addition, the “IC50 cAMP” value in experiment [2] is on record as more than 30000 nM.

Compound `CC(C)[C@@H](COc1nnc(-c2ccc(C(F)(F)F)cc2)o1)Nc1ccc(C(=O)NCCC(=O)O)cc1` [Compound 22-13, (S)-3-(4-((3-methyl-1-((5-(4-(trifluoromethyl)phenyl)-1,3,4-oxadiazol-2-yl)oxy)butan-2-yl)amino)benzamido)propanoic Acid] came in with a 50% inhibitory concentration (IC50) in experiment [1] of more than 30000 nM. Further, the “IC50 cAMP” value in experiment [2] is listed as more than 30000 nM.
